From ChEMBL document CHEMBL1151858, “4-Piperidines and 3-pyrrolidines as dual serotonin and noradrenaline reuptake inhibitors: design, synthesis and structure-activity relationships” (Bioorg Med Chem Lett, 2009)

Key:
in vitro = settings: human, liver microsomes
[1] = Octanol-water distribution coefficient, log D at pH 7.4; assay type: physicochemical
[2] = Volume of distribution in rat at 5 mg/kg, iv administered as single dose; assay type: ADME, organism-based; parameters: dose 5 mg/kg, route intravenous; settings: in vivo
[3] = Elimination half life in rat at 5 mg/kg, iv administered as single dose; assay type: ADME, organism-based; parameters: dose 5 mg/kg, route intravenous; settings: in vivo, read-out: beta t1/2 (converted)
[4] = Plasma clearance in rat at 5 mg/kg, iv administered as single dose; assay type: ADME, organism-based; parameters: dose 5 mg/kg, route intravenous

half-life (in vitro) [min]	logD [1]	Vd [2] [L/kg]	half-life [3] [min]	clearance [4] [mL/min/kg]	SMILES
> 120					Cc1ccc(C(Oc2cccc(Cl)c2Cl)C2CCNCC2)cn1 (centres undefined)
> 120	0.9				Clc1cccc(OC(c2ccccn2)[C@H]2CCNC2)c1Cl (some centres undefined)
> 120	1.2	33	120	180	Clc1cccc(OC(c2cccnc2)C2CCNCC2)c1Cl (single isomer, unassigned; enantiomer 1)

SMILES	half-life (in vitro) [min]	logD [1]	Vd [2] [L/kg]	half-life [3] [min]	clearance [4] [mL/min/kg]
CNCC[C@H](Oc1cccc2ccccc12)c1cccs1 [DULOXETINE]	> 120				
